We go through 7 compounds from US8076302B2, “Pyrimidine nucleoside derivatives and salts thereof” (aRigen Pharmaceuticals, Inc., priority 2007, dated 2011).

One data set concerns HSV-1. In words: In vitro antiviral test, 50% plaque formation inhibition, anti-HSV-1 activity. It counts as cell-based, herpes simplex virus type 1 (HSV-1). As to the method:
(§1) The compounds of the present invention were measured for their in vitro antiviral activity (anti-HSV-1 activity, anti-VZV activity) by using human fetal lung-derived cells in an assay for 50% plaque formation inhibition (Japanese Journal of Chemotherapy, Vol. 38, No. 3, 256-261, 1990).

For another data set, the system named is VZV. The data set can be described thus: In vitro antiviral test, 50% plaque formation inhibition, anti-VZV activity. The data set is classed as cell-based, varicella-zoster virus (VZV). The procedure: as §1
The subject of data set [1] is HSV-1 infection in mouse skin. The data set can be described thus: In vivo antiviral test, HSV-1 mouse skin infection model (creams). Particulars: HSV-1-infected mice, cream; for Incidence rate: affected/total animals. As to the method:
Creams were prepared for the compounds of the present invention according to Formulation Example 2 and tested for their therapeutic effect on HSV-1 infection in mouse skin. Moreover, skin symptoms in the HSV-1-infected mice were scored (Antiviral Research, 17, 133-143, 1992), and the time course of changes in their average lesion scores is shown in FIG. 1.
According to the ratio indicated above, creams were prepared in a routine manner and provided for Pharmacological Test Example 2.

Data set [2] concerns herpes simplex virus type 1 (HSV-1) and varicella-zoster virus (VZV). Particulars: Patent Document 1; cited from earlier work.
The test system of a further data set is HSV-1 infection in mice. Particulars: compared with acyclovir; Non-patent Document 1; cited from earlier work.
A further data set has as its system uninfected cells. Particulars: cited from earlier work.
[3] abbreviates: Human alphaherpesvirus 1, effective concentration required to reduce the number of plaques to 50%, human fetal lung-derived cells, read-out: Anti-HSV-1 activity (ED50).
[4] abbreviates: Human alphaherpesvirus 3, 50% plaque formation inhibition, human fetal lung-derived cells, read-out: Anti-VZV activity (ED50).
Setting [5] is: Human alphaherpesvirus 1, read-out: Anti-HSV-1 activity (ED50).
The mark [6] stands for this setting: Human alphaherpesvirus 3, read-out: Anti-VZV activity (ED50).

Molecules are shown by their SMILES. Counter-ions that a name gives are not always drawn. Like-named read-outs stand apart in the source and are kept apart here.

Take `O=c1[nH]c(=O)n([C@@H]2O[C@H](CO)[C@@H](O)[C@@H]2O)cc1/C=C/Cl` [CVAU, 1-β-D-arabinofuranosyl-(E)-5-(2-chlorovinyl)uracil, reference compound]: the EC50 with HSV-1 (setting [3]) was determined as 75 nM; with VZV (setting [4]), 8.9 nM. For the same compound, in data set [1], the Incidence rate is given as 6/8. Moreover, the Survival rate in data set [1] (survivors/total animals, chi-square test vs control) is reported as 7/8 P < 0.01. In addition, the “Activity compared with sorivudine” value in data set [2] is given as “the same activity as sorivudine”.
Regarding `O=C(OCC1OC(n2cc(/C=C/Cl)c(=O)[nH]c2=O)C(O)C1O)C1CCNCC1` [Compound 1, (E)-5-(2-chlorovinyl)-1-[5′-O-(piperidine-4-carboxyl)-β-D-arabinofuranosyl]uracil hydrochloride], the results for the EC50 in the data set on HSV-1 (setting [5]) and in the data set with VZV (setting [6]) were 400 nM and 46 nM, respectively. Besides, the Incidence rate in data set [1] (hydrochloride) is 4/8.
In the case of `CC(C)C(N)C(=O)OCC1OC(n2cc(/C=C/Cl)c(=O)[nH]c2=O)C(O)C1O` [Compound 2, 1-[5′-0-(L-valine)-β-D-arabinofuranosyl]-(E)-5-(2-chlorovinyl)uracil hydrochloride], the EC50 in the data set on HSV-1 (setting [5]) is 120 nM; in the data set on VZV (setting [6]), 19 nM. Moreover, in data set [1], the Incidence rate is 8/8.
Regarding `O=C(OCC1OC(n2cc(/C=C/Cl)c(=O)[nH]c2=O)C(O)C1O)c1cccnc1` [Compound 3, (E)-5-(2-chlorovinyl)-1-[5′-O-(pyridine-3-carboxyl)-β-D-arabinofuranosyl]uracil hydrochloride], the values for the EC50 with HSV-1 (setting [3]) and with VZV (setting [4]) were 490 nM and 52 nM, respectively.
The matching figures for `O=C(OCC1OC(n2cc(/C=C/Cl)c(=O)[nH]c2=O)C(O)C1O)c1ccncc1` [Compound 4, (E)-5-(2-chlorovinyl)-1-[5′-O-(pyridine-4-carboxyl)-β-D-arabinofuranosyl]uracil hydrochloride]: 130 nM and 21 nM.
Consider `CN1CCC(C(=O)OCC2OC(n3cc(/C=C/Cl)c(=O)[nH]c3=O)C(O)C2O)CC1` [Compound 5, (E)-5-(2-chlorovinyl)-1-[5′-O—(N-methylpiperidine-4-carboxyl)-β-D-arabinofuranosyl]uracil hydrochloride], for which the figures for the EC50 in the data set with HSV-1 (setting [3]) and in the data set with VZV (setting [4]) were 560 nM and 47 nM, respectively.
For the compound `O=c1[nH]c(=O)n([C@@H]2O[C@H](CO)[C@@H](O)[C@@H]2O)cc1/C=C/Br` [Sorivudine, 1-β-D-arabinofuranosyl-(E)-5-(2-bromovinyl)uracil], the “Usefulness as external formulation for HSV-1 infection in mice” value with HSV-1 infection in mice is on record as “as useful as acyclovir”. In addition, in the data set with uninfected cells, the Cytotoxicity entry was “extremely low”.
